Residues, ends and D or L forms follow the SMILES beside them. *: point of attachment. Cbz = O=C(OCc1ccccc1)*; CH2Cl = ClC*
What was measured:
[1] = target: T1, MBP-Sb9 (Homo sapiens, UniProt P50453); assay: Surface plasmon resonance (SPR) binding; settings: 25° C., 1:1 Langmuir model
T1 construct: made in house
Procedure: Surface plasmon resonance (SPR) measures change in refractive index on a biosensor surface, as analytic mass accumulates via binding to an attached ligand. This allows derivation of affinity (KD) from measured kinetic rates of association (ka) and dissociation (kd). All assays were run at 25° C. on a BiOptix 404pi. An NTA biosensor chip was used in this study to pre-concentrate 3 μM MBP-Sb9 via an N-terminal His-tag. MBP-Sb9 was covalently immobilized with EDC/NHS in 20 mM HEPES pH 8.0, 150 mM NaCl, 0.05% Tween-20, 5 mM β-ME to 10,000 to 15,000 RUs. MBP was similarly immobilized on a separate channel as a negative control. Compounds were injected as 3-fold serial dilutions in duplicate starting at 200 μM. Injections were done at 50 μL/min for 60 seconds, followed by a 120 second dissociation in 20 mM HEPES, pH 8.0, 150 mM NaCl, 0.05% Tween-20, 5 mM j-ME, 1% DMSO. A series of five DMSO standards between 0.5% and 1.5% were included with each run to correct for bulk refractive index. Sensorgrams were analyzed using Scrubber 2 software with a double reference and fit to a 1:1 Langmuir model to determine the interaction parameters KD, ka, and kd.

[2] = test system: MBP-Sb9; assay: Thermal stability assay (TSA) fragment screen; format: binding; settings: 5000 to 21 μM
Procedure: FIG. 4A. The upper panels show the TSA results of the MBP-Sb9 protein incubated with 5 mM 3,4-dihydroxybenzoic acid (3,4-DHBA; left) and 3-oxo-1-indancarboxylic acid (right), or with 2.5% DMSO. The thermal shifts of the compounds 3,4-dihydroxybenzoic acid and 3-oxo-1-indancarboxylic acid are shown in a thick dark line against a baseline control shown as a thin gray line. The bottom panels show the TSA results of the MBP-Sb9 protein incubated with 3,4-dihydroxybenzoic acid (left) or 3-oxo-1-indancarboxylic acid (right) at different concentrations, including 5000, 1667, 556, 185, 62, and 21 μM. The concentration-response curves are plotted in a black/gray color scale (higher intensity is higher concentration) and the straight line plots represent the compound background signal.
TSA is an analytic tool to estimate the overall stability of a protein by monitoring the shift in its melting temperature upon changing the buffer conditions or titrating various ligands. As the protein unfolds with increasing temperature in a thermal cycler (CFX384 Touch Real-Time PCR Detection System), SYPRO orange dye binds to the exposed hydrophobic core and fluoresces, leading to the signal that is measured in comparison to temperature to produce a melt curve. […] Dye was added at 2×strength, and the readings were performed from 25° C. to 95° C. at 0.5° C. intervals. […]

[3] = target: MBP (Escherichia coli, UniProt P0AEX9); assay: SPR negative control channel; format: binding
Procedure: FIG. 4B. Sensorgrams of compounds 3,4-dihydroxybenzoic acid (top), 3-oxo-1-indancarboxylic acid (middle), and the compound of Formula (III) (bottom) show the binding of 3,4-dihydroxybenzoic acid and the compound of Formula (III) to Sb9 (top), but not to MBP (bottom) by Surface Plasmon Resonance (SPR).
All assays were run at 25° C. on a BiOptix 404pi. An NTA biosensor chip was used in this study to pre-concentrate 3 μM MBP-Sb9 via an N-terminal His-tag. MBP-Sb9 was covalently immobilized with EDC/NHS in 20 mM HEPES pH 8.0, 150 mM NaCl, 0.05% Tween-20, 5 mM β-ME to 10,000 to 15,000 RUs. MBP was similarly immobilized on a separate channel as a negative control.

[4] = test system: B16-WT and B16-Sb9 KO cells; assay: IL2-induced GrB expression and apoptosis by flow cytometry; format: cell-based, mouse; settings: 10 μM; IL2 70 ng/mL, 48 h
Excerpt: FIG. 1H. […] Data are expressed as means±SD from three independent experiments. ***P<0.001 (Student's t-test).
FIGS. 1J-1K. […] Cells treated with PBS alone were used as a negative control. Data are expressed as means±SD from three independent experiments. *P<0.05, ***P<0.001 (Student's t-test).

T1 sequence (P50453 whole entry): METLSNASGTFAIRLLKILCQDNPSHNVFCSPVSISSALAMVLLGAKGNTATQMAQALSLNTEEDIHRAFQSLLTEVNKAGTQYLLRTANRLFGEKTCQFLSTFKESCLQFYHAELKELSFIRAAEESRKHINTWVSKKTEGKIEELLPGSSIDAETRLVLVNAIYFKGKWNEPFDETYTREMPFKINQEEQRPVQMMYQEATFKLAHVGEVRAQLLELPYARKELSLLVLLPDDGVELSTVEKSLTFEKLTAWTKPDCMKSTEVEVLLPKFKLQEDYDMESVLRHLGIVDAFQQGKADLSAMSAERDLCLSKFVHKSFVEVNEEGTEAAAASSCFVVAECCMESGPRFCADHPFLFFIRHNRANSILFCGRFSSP

SMILES | Kd [1] [µM] | Tm1 shift [2] | binding to MBP (negative control) [3] | apoptosis of IL2-treated cells [4]
O=C(O)c1ccc(O)c(O)c1 [3,4-dihydroxybenzoic acid, reference compound] | 88 | dose-dependent Tm1 shift | not to MBP | 
C[C@H](NC(=O)OCc1ccccc1)C(=O)N[C@@H](C)C(=O)N[C@@H](CC(=O)O)C(=O)CCl [GrB inhibitor (368050)] (Cbz-Ala-Ala-Asp-CH2Cl) |  |  |  | suppresses apoptosis

— patent US20230255906A1, “Targeting Serpin B9 in Cancer” (The Brigham and Women`s Hospital, Inc., priority 2020, published 2023)
